Measurements published in ChEMBL document CHEMBL4004829, “Synthesis and antiproliferative activity of a series of novel 6-substituted pyrido[3,2-d]pyrimidines as potential nonclassical lipophilic antifolates targeting dihydrofolate reductase” (Eur J Med Chem, 2017).
pIC50: −log10 of the molar value.

How the values were obtained:
[1] = system: A549; assay: Antiproliferative activity against human A549 cells after 48 hrs by MTS assay; format: functional, cell-based; details: A549, 48 h
[2] = system: HeLa; assay: cells; details: Homo sapiens, 48 h
Description: Antiproliferative activity against human HeLa cells after 48 hrs by MTS assay

[3] = system: NCI-H1299; assay: Antiproliferative activity against human NCI-H1299 cells after 48 hrs by MTS assay; format: functional, cell-based; details: NCI-H1299, 48 h
[4] = target: T1, Dihydrofolate reductase (Homo sapiens, UniProt P00374); assay: Inhibition of recombinant human DHFR using dihydrofolate as substrate after 15 mins in presence of NADPH
T1 sequence (P00374 whole entry): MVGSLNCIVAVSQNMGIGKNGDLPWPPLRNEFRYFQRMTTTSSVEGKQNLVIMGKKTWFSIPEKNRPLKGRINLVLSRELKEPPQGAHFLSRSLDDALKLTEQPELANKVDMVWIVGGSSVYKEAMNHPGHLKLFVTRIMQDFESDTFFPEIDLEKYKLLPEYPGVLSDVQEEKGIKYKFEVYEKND

[5] = system: HL-60; assay: Antiproliferative activity against human HL60 cells after 48 hrs by MTS assay; format: functional, cell-based; details: HL-60, 48 h
[6] = system: HL-60; assay: Cell cycle arrest in human HL60 cells assessed as G2/M phase at 0.8 uM after 24 hrs by propidium iodide staining based flow cytometry (reference value: 12.2 +/- 1.1%); format: functional
[7] = system: HL-60; assay: Cell cycle arrest in human HL60 cells assessed as S phase at 0.1 uM after 24 hrs by propidium iodide staining based flow cytometry (reference value: 58.7 +/- 0.8%); format: functional
[8] = system: HL-60; assay: Cell cycle arrest in human HL60 cells assessed as S phase at 0.2 uM after 24 hrs by propidium iodide staining based flow cytometry (reference value: 58.7 +/- 0.8%); format: functional
[9] = system: HL-60; assay: Cell cycle arrest in human HL60 cells assessed as G2/M phase at 0.1 uM after 24 hrs by propidium iodide staining based flow cytometry (reference value: 12.2 +/- 1.1%); format: functional
[10] = system: HL-60; assay: Cell cycle arrest in human HL60 cells assessed as G1 phase at 0.2 uM after 24 hrs by propidium iodide staining based flow cytometry (reference value: 29.1 +/- 0.5%); format: functional
[11] = system: HL-60; assay: Cell cycle arrest in human HL60 cells assessed as S phase at 0.05 uM after 24 hrs by propidium iodide staining based flow cytometry (reference value: 58.7 +/- 0.8%); format: functional
[12] = system: HL-60; assay: Cell cycle arrest in human HL60 cells assessed as G1 phase at 0.05 uM after 24 hrs by propidium iodide staining based flow cytometry (reference value: 29.1 +/- 0.5%); format: functional
[13] = system: HL-60; assay: Cell cycle arrest in human HL60 cells assessed as G2/M phase at 0.4 uM after 24 hrs by propidium iodide staining based flow cytometry (reference value: 12.2 +/- 1.1%); format: functional
[14] = system: HL-60; assay: Cell cycle arrest in human HL60 cells assessed as G2/M phase at 0.2 uM after 24 hrs by propidium iodide staining based flow cytometry (reference value: 12.2 +/- 1.1%); format: functional
[15] = system: HL-60; assay: Cell cycle arrest in human HL60 cells assessed as G1 phase at 0.4 uM after 24 hrs by propidium iodide staining based flow cytometry (reference value: 29.1 +/- 0.5%); format: functional
[16] = system: HL-60; assay: Cell cycle arrest in human HL60 cells assessed as G2/M phase at 0.05 uM after 24 hrs by propidium iodide staining based flow cytometry (reference value: 12.2 +/- 1.1%); format: functional
[17] = system: HL-60; assay: Cell cycle arrest in human HL60 cells assessed as G1 phase at 0.8 uM after 24 hrs by propidium iodide staining based flow cytometry (reference value: 29.1 +/- 0.5%); format: functional
[18] = system: HL-60; assay: Cell cycle arrest in human HL60 cells assessed as S phase at 0.4 uM after 24 hrs by propidium iodide staining based flow cytometry (reference value: 58.7 +/- 0.8%); format: functional
[19] = system: HL-60; assay: Cell cycle arrest in human HL60 cells assessed as S phase at 0.8 uM after 24 hrs by propidium iodide staining based flow cytometry (reference value: 58.7 +/- 0.8%); format: functional
[20] = system: HL-60; assay: Cell cycle arrest in human HL60 cells assessed as G1 phase at 0.1 uM after 24 hrs by propidium iodide staining based flow cytometry (reference value: 29.1 +/- 0.5%); format: functional

Structure (SMILES)	pIC50 [1]	pIC50 [2]	pIC50 [3]	pIC50 [4]	pIC50 [5]	other results
Nc1nc(N)c2nc(CCc3ccc(Br)cc3)ccc2n1	4.65	5.37	5.83	5.90	6.92	
COc1cccc(CCc2ccc3nc(N)nc(N)c3n2)c1	4.84	4.84	5.15	6.35	6.38	
Nc1nc(N)c2nc(/C=C/c3ccc(Cl)cc3)ccc2n1	5.09	5.12	5.03	4.77	5.42	
Nc1nc(N)c2nc(CCc3ccccc3)ccc2n1	5.01	5.06	5.04	5.65	6.44	
Nc1nc(N)c2nc(/C=C/c3ccccc3)ccc2n1	4.86	4.87	4.82	5.27	5.41	
CC(C)c1ccc(CCc2ccc3nc(N)nc(N)c3n2)cc1	4.80	4.85		4.72	6.31	
Nc1nc(N)c2nc(/C=C/c3ccc(Br)cc3)ccc2n1	4.92	5.04	5.21	4.83	5.60	
COc1cc(CCc2ccc3nc(N)nc(N)c3n2)cc(OC)c1OC	4.94	5.54	5.66	6.54	6.38	Activity [6]: 1.5%; Activity [7]: 64.3%; Activity [8]: 73.2%; Activity [9]: 10%; Activity [10]: 20.2%; Activity [11]: 63%; Activity [12]: 26.3%; Activity [13]: 4.4%; Activity [14]: 6.6%; Activity [15]: 18%; Activity [16]: 10.7%; Activity [17]: 10%; Activity [18]: 77.6%; Activity [19]: 88.5%; Activity [20]: 25.7%
COc1ccccc1/C=C/c1ccc2nc(N)nc(N)c2n1	5.12	4.86	5.06	5.44	5.44	
CCc1ccc(/C=C/c2ccc3nc(N)nc(N)c3n2)cc1	5.04	5.01	5.31	5.28	5.92	
Cc1ccc(CCc2ccc3nc(N)nc(N)c3n2)cc1	4.47	4.28	5.79	5.59	6.51	
Nc1nc(N)c2nc(CCc3ccc(Cl)cc3)ccc2n1	4.79	5.28	5.97	5.55	6.57	
Nc1nc(N)c2nc(/C=C/c3ccc(F)cc3)ccc2n1	5.17	5.10	5.22	5.32	5.58	
COc1cc(/C=C/c2ccc3nc(N)nc(N)c3n2)cc(OC)c1OC	5.27	5.68	5.40	5.40	5.63	
COc1ccc(CCc2ccc3nc(N)nc(N)c3n2)cc1	4.74	4.98	5.67	6.15	7.14	
Cc1ccc(/C=C/c2ccc3nc(N)nc(N)c3n2)cc1	4.72	4.84		5.50	5.34	
COc1cccc(/C=C/c2ccc3nc(N)nc(N)c3n2)c1	5.04	4.73	4.91	5.38	5.69	
Nc1nc(N)c2nc(CCc3ccc(F)cc3)ccc2n1	5.30	4.27	4.83	6.02	6.24	
COc1ccc(/C=C/c2ccc3nc(N)nc(N)c3n2)cc1	5.25	5.19	5.43	5.36	5.79	
COc1ccccc1CCc1ccc2nc(N)nc(N)c2n1	4.52	4.98	5.33	5.78	6.10	
CC(C)c1ccc(/C=C/c2ccc3nc(N)nc(N)c3n2)cc1	4.97	4.98	4.95	4.70	5.98	
CCc1ccc(CCc2ccc3nc(N)nc(N)c3n2)cc1	4.81	4.31	5.56	5.61	6.68	
O=c1[nH]cc(F)c(=O)[nH]1 [FLUOROURACIL]		4.21	5.05		5.79	
